Results as given in ChEMBL document CHEMBL4145486, “Design, synthesis and biological evaluation of LX2343 derivatives as neuroprotective agents for the treatment of Alzheimer's disease” (Eur J Med Chem, 2018).
The source made the active and inactive calls. The calls are words filed in the database; no cut-off is given here.

Assays:
SH-SY5Y = assay: Neuroprotective activity against STZ induced cell death of human SH-SY5Y cells after 24 hrs by MTT assay; type: functional, cell-based
[1] = biological target: Amyloid-beta precursor protein (Homo sapiens) (UniProt P05067); assay: Inhibition of STZ induced beta amyloid clearance in human SH-SY5Y cells by ELISA; type: cell-based
Amyloid-beta precursor protein (Homo sapiens), sequence (P05067 whole entry): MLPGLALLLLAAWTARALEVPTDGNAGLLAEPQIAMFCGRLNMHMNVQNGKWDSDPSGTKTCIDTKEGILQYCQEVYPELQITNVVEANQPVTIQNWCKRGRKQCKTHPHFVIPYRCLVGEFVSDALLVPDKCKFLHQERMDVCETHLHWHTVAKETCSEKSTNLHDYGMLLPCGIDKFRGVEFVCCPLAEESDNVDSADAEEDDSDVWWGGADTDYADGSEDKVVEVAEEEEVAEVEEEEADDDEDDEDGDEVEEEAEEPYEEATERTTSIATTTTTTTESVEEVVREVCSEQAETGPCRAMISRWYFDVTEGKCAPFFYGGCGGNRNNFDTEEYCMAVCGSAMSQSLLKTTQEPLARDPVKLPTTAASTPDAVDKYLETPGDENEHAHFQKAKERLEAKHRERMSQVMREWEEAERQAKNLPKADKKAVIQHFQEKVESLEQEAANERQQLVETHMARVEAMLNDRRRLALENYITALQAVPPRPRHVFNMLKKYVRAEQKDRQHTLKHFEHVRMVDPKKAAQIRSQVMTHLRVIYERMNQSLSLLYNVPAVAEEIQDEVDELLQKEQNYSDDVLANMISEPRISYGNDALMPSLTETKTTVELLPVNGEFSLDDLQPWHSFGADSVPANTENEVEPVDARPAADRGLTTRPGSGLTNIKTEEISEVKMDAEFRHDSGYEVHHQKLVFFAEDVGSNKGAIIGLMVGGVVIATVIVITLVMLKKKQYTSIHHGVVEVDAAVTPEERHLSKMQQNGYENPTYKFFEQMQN

[2] = biological target: Amyloid-beta precursor protein (Homo sapiens) (UniProt P05067); assay: Inhibition of STZ induced beta amyloid (unknown origin) deposition in HEK293 cells harboring APPSW mutant at 20 uM by ELISA; type: cell-based
Mus musculus [3] = assay: Antialzheimer activity in APP1/PS1 transgenic mouse assessed as decrease in prolonged path length at 30 mg/kg, ip administered 100 days prior to testing and measured at day 6 post continuous dosing by Morris water maze test; type: functional, organism-based
Mus musculus [4] = assay: Antialzheimer activity in APP1/PS1 transgenic mouse assessed as decrease in escape latencies at 30 mg/kg, ip administered 100 days prior to testing and measured at day 6 post continuous dosing by Morris water maze test; type: functional, organism-based
[5] = biological target: Microtubule-associated protein tau (Homo sapiens) (UniProt P10636); assay: Inhibition of STZ induced tau hyperphosphorylation at ser396 residues in human SH-SY5Y cells at 20 uM by immunohistochemical assay; type: cell-based
Microtubule-associated protein tau (Homo sapiens), sequence (P10636 whole entry): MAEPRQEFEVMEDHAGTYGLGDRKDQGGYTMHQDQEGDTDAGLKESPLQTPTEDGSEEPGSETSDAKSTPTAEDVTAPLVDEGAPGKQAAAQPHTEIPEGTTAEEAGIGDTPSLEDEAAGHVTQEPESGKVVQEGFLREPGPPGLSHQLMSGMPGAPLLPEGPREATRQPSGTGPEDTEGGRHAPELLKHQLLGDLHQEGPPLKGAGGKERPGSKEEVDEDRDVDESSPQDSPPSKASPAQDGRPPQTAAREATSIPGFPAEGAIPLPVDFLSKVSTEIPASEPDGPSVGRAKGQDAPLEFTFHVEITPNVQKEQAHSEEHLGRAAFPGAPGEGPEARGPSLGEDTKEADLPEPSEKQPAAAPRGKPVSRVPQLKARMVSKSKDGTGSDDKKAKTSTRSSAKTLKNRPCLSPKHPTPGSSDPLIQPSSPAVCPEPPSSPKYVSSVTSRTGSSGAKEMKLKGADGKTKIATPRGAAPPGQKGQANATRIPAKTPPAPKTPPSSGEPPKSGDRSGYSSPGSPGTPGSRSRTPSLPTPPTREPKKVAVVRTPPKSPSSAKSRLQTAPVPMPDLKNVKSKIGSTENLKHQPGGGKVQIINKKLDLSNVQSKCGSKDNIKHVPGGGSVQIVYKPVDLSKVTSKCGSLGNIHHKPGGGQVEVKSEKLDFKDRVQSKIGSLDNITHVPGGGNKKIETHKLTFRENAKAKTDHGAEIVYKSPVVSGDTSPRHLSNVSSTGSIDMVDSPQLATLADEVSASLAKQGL

Mus musculus [6] = assay: Toxicity in APP1/PS1 transgenic mouse assessed as change in swimming speed at 15 to 30 mg/kg, ip administered 100 days; type: organism-based; conditions: in vivo, 2400 h
Mus musculus [7] = assay: Toxicity in APP1/PS1 transgenic mouse assessed as change in body weight at 15 to 30 mg/kg, ip administered 100 days; type: organism-based; conditions: in vivo, 2400 h
Mus musculus [8] = assay: Toxicity in APP1/PS1 transgenic mouse assessed as effect on liver function at 15 to 30 mg/kg, ip administered 100 days; type: organism-based; conditions: in vivo, 2400 h

SMILES	EC50 (SH-SY5Y) [µM]	other results
COc1ccc(NC(=O)CN(c2cc(Cl)ccc2OC)S(=O)(=O)c2ccccc2)cc1OC	> 20	
COc1ccc(Cl)cc1NC(=O)CN(c1cc(Cl)ccc1OC)S(=O)(=O)c1ccccc1	> 20	
COc1ccc(Cl)cc1N(CC(=O)NC12CC3CC(C)(CC(C)(C3)C1)C2)S(=O)(=O)c1ccc(Cl)cc1	> 20	
COc1ccc(Cl)cc1N(CC(=O)Nc1cccc2c1[nH]c1ccccc12)S(=O)(=O)c1ccccc1	6.56	
Cc1ccc(N(CC(=O)NC23CC4CC(C)(CC(C)(C4)C2)C3)S(=O)(=O)c2ccccc2)cc1Cl	8.86	
CCn1ccc2cc(NC(=O)CN(c3cc(Cl)ccc3OC)S(=O)(=O)c3ccccc3)ccc21	2.22	
COc1ccc(Cl)cc1N(CC(=O)Nc1ccc(Cl)cc1)S(=O)(=O)c1ccccc1	> 20	
COc1ccc(Cl)cc1N(CC(=O)Nc1ccccc1)S(=O)(=O)c1ccccc1	> 20	
CC12CC3CC(C)(C1)CC(NC(=O)CN(c1ccccc1)S(=O)(=O)c1ccccc1)(C3)C2	> 20	
COc1ccc(Cl)cc1N(CC(=O)Nc1ccc2[nH]c3ccccc3c2c1)S(=O)(=O)c1ccccc1	2.75	
COc1ccc(Cl)cc1N(CC(=O)Nc1ccc2c(c1)c1ccccc1n2C)S(=O)(=O)c1ccccc1	1.32	
COc1cccc(NC(=O)CN(c2cc(Cl)ccc2OC)S(=O)(=O)c2ccccc2)c1	17.6	
COc1ccccc1NC(=O)CN(c1cc(Cl)ccc1OC)S(=O)(=O)c1ccccc1	15.5	
CCCNC(=O)CN(c1cc(Cl)ccc1OC)S(=O)(=O)c1ccccc1	> 20	
COc1ccc(Cl)cc1N(CC(=O)NC12CC3CC(C)(CC(C)(C3)C1)C2)C(=O)c1ccccc1	> 20	
COc1ccc(Cl)cc1N(CC(=O)Nc1cccc2c3ccccc3n(C)c12)S(=O)(=O)c1ccccc1	3.18	inhibition [1]: Active; inhibition [2]: Active
CCn1c2ccccc2c2cc(NC(=O)CN(c3cc(Cl)ccc3OC)S(=O)(=O)c3ccccc3)ccc21	0.25	inhibition [1]: Active; inhibition [2]: Active
COc1ccc(Cl)cc1N(CC(=O)N1CCCCC1)S(=O)(=O)c1ccccc1	14.5	inhibition [2]: Active

SMILES	EC50 (SH-SY5Y) [µM]	other results
CC12CC3CC(C)(C1)CC(NC(=O)CN(C1CCCCC1)S(=O)(=O)c1ccccc1)(C3)C2	> 20	
COc1ccc(NC(=O)CN(c2cc(Cl)ccc2OC)S(=O)(=O)c2ccccc2)cc1	16.2	
COc1ccc(Cl)cc1N(CC(=O)NC1CCCCC1)S(=O)(=O)c1ccccc1	17.6	
COc1ccc(Cl)cc1N(CC(=O)NC12CC3CC(C)(CC(C)(C3)C1)C2)S(=O)(=O)c1ccccc1	0.22	inhibition [1]: Active; Activity (Mus musculus [3]): Active; Activity (Mus musculus [4]): Active; inhibition [5]: Active; Activity (Mus musculus [6]): Non-Toxic; Activity (Mus musculus [7]): Non-Toxic; inhibition [2]: Active; Activity (Mus musculus [8]): Non-Toxic
COc1ccc(Cl)cc1N(CC(=O)N(C1CCCCC1)C1CCCCC1)S(=O)(=O)c1ccccc1	14.3	
COc1ccc(Cl)cc1N(CC(=O)Nc1ccc(C(F)(F)F)cc1)S(=O)(=O)c1ccccc1	3.75	inhibition [1]: Active; inhibition [5]: Active; inhibition [2]: Active
COc1ccc(Cl)cc1N(CC(=O)Nc1ccc([N+](=O)[O-])cc1)S(=O)(=O)c1ccccc1	8.21	
CC12CC3CC(C)(C1)CC(NC(=O)CN(c1ccc(Cl)cc1)S(=O)(=O)c1ccccc1)(C3)C2	> 20	
CCN(CC)C(=O)CN(c1cc(Cl)ccc1OC)S(=O)(=O)c1ccccc1	> 20	
CC12CC3CC(C)(C1)CC(NC(=O)CN(c1ccccc1Cl)S(=O)(=O)c1ccccc1)(C3)C2	16.1	
COc1ccc(Cl)cc1N(CC(=O)NC12CC3CC(C)(CC(C)(C3)C1)C2)S(=O)(=O)c1ccc([N+](=O)[O-])cc1	> 20	
COc1ccc(Cl)cc1N(CC(=O)N1CCc2ccccc21)S(=O)(=O)c1ccccc1	> 20	
COc1ccc(CNC(=O)CN(c2cc(Cl)ccc2OC)S(=O)(=O)c2ccccc2)cc1	> 20	
CC12CC3CC(C)(C1)CC(NC(=O)CN(c1cccc(Cl)c1)S(=O)(=O)c1ccccc1)(C3)C2	12.3	
COc1ccc(Cl)cc1N(CC(=O)Nc1cccc2ccccc12)S(=O)(=O)c1ccccc1	17.4	
COc1ccc(Cl)cc1N(CC(=O)NC12CC3CC(C)(CC(C)(C3)C1)C2)S(=O)(=O)c1ccc(C)cc1	> 20	
Cc1c(Cl)cccc1N(CC(=O)NC12CC3CC(C)(CC(C)(C3)C1)C2)S(=O)(=O)c1ccccc1	> 20	
